Laboratory results from publication PMC12162926, “A novel strategy for identifying hepatotoxic constituents in traditional Chinese medicine using dose-normalized intracellular accumulation as a cytotoxicity indicator: a case study of Jinlingzi San” (Frontiers in Pharmacology, 2025).

Legend:
[1] = test system: L-02 cells; assay: Cell growth inhibition assay (CCK-8); format: cell-based, human; settings: single compounds; for IC50 (cell viability): L-02, 24 h exposure; for IC50: Homo sapiens, L02, L-02, 24 h exposure, read-out: IC50 (cell viability)
[2] = design: method as in Gu et al., 2021; settings: pharmacokinetic level, JLZS vs single herb; ref Gu et al., 2021; cited from earlier work
[3] = test system: L-02 cells; assay: Intracellular identification of L-02 cell-uptake components by LC–MS/MS; format: in vitro ADME, human; settings: L-02 exposed to JLZS-containing medium 6.5 mg/mL for 2 h
Procedure: The powder of 25 g FT and 25 g RC was evenly blended and then refluxed twice with six-fold 50% ethanol (1: 6, w/v) for 1 h; the collected filtrate was evaporated to dryness and further dissolved in DMSO, after filtering using the 0.22-µm cellulose acetate membrane. JLZS-containing medium (6.5 mg/mL) was freshly prepared by diluting the filtrate with RPMI-1640. Likewise, RC-containing medium was freshly prepared in the same method independently.
L-02 cells were seeded on 9-cm-diameter cell culture plates; after ∼80% confluent, the cultured cells were incubated with 6.5 mg/mL JLZS-containing medium. After 2-h exposure, L-02 cells were quickly washed free of culture medium with cold PBS (−) twice and harvested with 1 mL of 0.25% trypsin-EDTA for cell isolation. The cell suspension (∼5 × 10^6 cells) was spun down, and the cells were further washed twice in cold PBS (−). Then, 200 µL of methanol was used to lyse the collected cells with vortex mixing for 1 min. The cell lysates were centrifuged at 12,000 rpm for 4 min, and 10 μL of the centrifugal supernatant was injected into the LC–MS/MS system for identified analysis.
The LC–MS/MS system consisted of a Thermo TSQ Quantum Ultra triple-quadrupole mass spectrometer equipped with an electrospray ionization source (San Jose, CA, United States). LCquan quantitation software (version 2.5.6, Thermo Fisher Scientific, Waltham, MA, USA) was used to control the LC–MS/MS system for data acquisition and analysis. Analytes and IS separation were conducted using a Waters XTerra® MS C18 column (3.0 mm × 50 mm, 5 µm) maintained at 20 °C. By injecting 5 µL samples with a flow rate of 0.2 mL/min, chromatographic separation was achieved using a mobile phase of 0.1% formic acid–water (A) and methanol (B) via gradient elution, 0.0–2.0 min, 35%–50% B; 2.0–2.1 min, 50%–55% B; 2.1–2.5 min, 55%–60% B; 2.5–14.0 min, 60% B. The analytes and IS were detected in the ESI source by polarity switching from positive for 0.0–8.0 min to negative-ion modes for 8.5–14.0 min in a single run with multiple reaction monitoring (MRM).

[4] = test system: L-02 cells; assay: Intracellular accumulation in L-02 cells by LC–MS/MS; format: in vitro ADME, human; settings: for Intracellular concentration: L-02, JLZS extracts 6.5 mg/mL; for Intracellular concentration / intracellular uptake in the JLZS group compared with the RC group: n = 6; for intracellular uptake in the JLZS group compared with the RC group: L-02, JLZS 6.5 mg/mL vs RC 3.25 mg/mL
[5] = Stability of analytes in cell lysates (LC–MS/MS method validation); format: physicochemical; settings: n=3; for Post-preparation stability RE%: 4 ℃, 24 h at autosampler; for Short-term stability RE%: 12 h at room temperature; for Long-term stability RE%: -80℃ for a month; for Freeze-thaw stability RE%: three freeze-thaw
Procedure: The stability of seven analytes including short-term stability (12 h at room temperature), post-preparation stability at 4 ℃ (24 h at autosampler), freeze-thaw stability (three freeze-thaw stability) and long-term stability (-80℃ for a month) was tested by analyzing three replicates at low and high QC levels during various sample storage and handling process.

Row | SMILES | IC50 (cell viability) [1] | elimination in the JLZS group compared with the single-herb group [2] | detection in cell lysates [3] | Intracellular concentration ([4]; time 0.25 h) [ng/mL] | Intracellular concentration ([4]; time 0.5 h) [ng/mL] | Intracellular concentration ([4]; time 1 h) [ng/mL] | Intracellular concentration ([4]; time 1.5 h) [ng/mL] | Intracellular concentration ([4]; time 2 h) [ng/mL] | Intracellular concentration ([4]; time 3 h) [ng/mL] | Intracellular concentration ([4]; time 5 h) [ng/mL] | Intracellular concentration ([4]; time 8 h) [ng/mL] | Post-preparation stability RE% ([5]; high QC level) [%] | Post-preparation stability RE% ([5]; low QC level) [%] | Short-term stability RE% ([5]; high QC level) [%] | Short-term stability RE% ([5]; low QC level) [%] | Long-term stability RE% ([5]; high QC level) [%] | Long-term stability RE% ([5]; low QC level) [%] | Freeze-thaw stability RE% ([5]; high QC level) [%] | Freeze-thaw stability RE% ([5]; low QC level) [%] | other results
1 | COc1cc2c(cc1OC)[C@@H]1Cc3ccc(OC)c(OC)c3CN1CC2 [THP, tetrahydropalmatine] | not detected IC50 values within the set concentration range | decreased significantly | – | – | – | – | – | – | – | – | – | – | – | – | – | – | – | – | – | –
2 | COc1cc2c(cc1OC)-c1cc3ccc(OC)c(OC)c3c[n+]1CC2 [PAL, palmatine] | not detected IC50 values within the set concentration range | decreased significantly | found in the cell lysates | 11.6 ± 1.8 | 15.6 ± 2.7 | 29.6 ± 7.9 | 40.2 ± 10.1 | 49.4 ± 19.9 | 65.7 ± 12.4 | 96.9 ± 10.7 | 99.5 ± 24.3 | 6.8 | -1.3 | 2.5 | 6.5 | 0.0 | 6.4 | 6.5 | -3.5 | –
3 | COc1ccc2c(c1OC)CN(C)CCc1cc3c(cc1C(=O)C2)OCO3 [ALL, allocryptopine] | not detected IC50 values within the set concentration range | – | – | – | – | – | – | – | – | – | – | – | – | – | – | – | – | – | – | –
4 | CN1CCc2cc3c(cc2C(=O)Cc2ccc4c(c2C1)OCO4)OCO3 [PRO, protopine] | not detected IC50 values within the set concentration range | – | – | – | – | – | – | – | – | – | – | – | – | – | – | – | – | – | – | –
5 | COc1ccc2c(c1OC)CN1CCc3cc4c(cc3C1C2)OCO4 (stereo not shown) [THB, tetrahydroberberine] | not detected IC50 values within the set concentration range | decreased significantly | – | – | – | – | – | – | – | – | – | – | – | – | – | – | – | – | – | –
6 | c1cc2c(c3c1CC1c4cc5c(cc4CCN1C3)OCO5)OCO2 (stereo not shown) [THC, tetrahydrocoptisine] | not detected IC50 values within the set concentration range | decreased significantly | found in the cell lysates | 15.8 ± 3.0 | 13.3 ± 0.5 | 15.0 ± 2.7 | 17.7 ± 3.6 | 20.3 ± 5.4 | 15.8 ± 2.9 | 15.1 ± 1.4 | 13.3 ± 1.8 | -0.9 | -0.6 | 4.6 | 3.4 | 1.2 | 5.3 | -1.4 | -2.5 | –
7 | CC(=O)O[C@@H]1C[C@H](O)[C@@]23CO[C@@H](O)[C@]1(C)[C@@H]2C[C@@H](O)[C@]1(C)[C@@H]3C(=O)[C@H](OC(C)=O)[C@@]2(C)[C@H](c3ccoc3)C[C@H]3O[C@]321 [TSN, toosendanin] | not detected IC50 values within the set concentration range | decreased significantly | found in the cell lysates | 10.4 ± 1.1 | 13.6 ± 4.0 | 38.5 ± 10.2 | 32.8 ± 13.6 | 20.1 ± 2.8 | 23.8 ± 4.4 | 26.4 ± 9.2 | 15.5 ± 3.4 | 0.1 | 7.6 | -0.1 | 8.0 | 8.6 | 10.2 | -4.0 | 6.2 | exposure time at highest intracellular concentration ([4]; L-02 exposed to JLZS 6.5 mg/mL): 1 h
8 | c1c2c(cc3c1OCO3)-c1cc3ccc4c(c3c[n+]1CC2)OCO4 [COP, coptisine] | – | – | found in the cell lysates | 38.3 ± 4.9 | 44.0 ± 11.4 | 67.5 ± 7.7 | 84.4 ± 21.2 | 98.1 ± 34.8 | 134.8 ± 24.4 | 197.6 ± 45.9 | 261.8 ± 60.2 | 6.8 | -0.6 | 6.2 | 5.6 | 6.6 | 4.0 | 5.0 | 0.7 | intracellular uptake in the JLZS group compared with the RC group [4]: decreased significantly; dose-normalized intracellular accumulation (ranking) ([4]; ratio of highest intracellular accumulation versus content in JLZS extracts, L-02): the highest; IC50 [1]: 14 µg/mL
9 | COc1cc2c(cc1O)CC[n+]1cc3c(OC)c(OC)ccc3cc1-2 [JAT, jatrorrhizine] | not detected IC50 values within the set concentration range | – | found in the cell lysates | 13.4 ± 0.2 | 13.8 ± 0.8 | 14.9 ± 0.8 | 15.8 ± 1.8 | 16.3 ± 1.9 | 19.6 ± 1.0 | 21.2 ± 3.5 | 26.2 ± 6.0 | 4.7 | -0.2 | 8.0 | 5.3 | 4.0 | 1.9 | 8.0 | 2.9 | –
10 | COc1ccc2cc3[n+](cc2c1OC)CCc1cc2c(cc1-3)OCO2 [BER, berberine] | – | – | found in the cell lysates | 3.2 ± 0.5 | 3.7 ± 0.3 | 5.5 ± 1.3 | 7.2 ± 2.5 | 8.3 ± 4.0 | 10.1 ± 1.7 | 12.3 ± 2.5 | 15.6 ± 4.9 | 3.1 | 1.8 | 2.5 | 5.6 | 1.2 | 1.8 | 6.9 | 5.6 | intracellular uptake in the JLZS group compared with the RC group [4]: decreased significantly; IC50 [1]: 41.2 µg/mL
11 | C[C@@H]1O[C@@H](OC[C@H]2O[C@@H](Oc3c(-c4ccc(O)c(O)c4)oc4cc(O)cc(O)c4c3=O)[C@H](O)[C@@H](O)[C@@H]2O)[C@H](O)[C@H](O)[C@H]1O [RUT, rutin] | not detected IC50 values within the set concentration range | – | – | – | – | – | – | – | – | – | – | – | – | – | – | – | – | – | – | –
12 | COc1cc2c(cc1OC)[C@H]1[C@@H](C)c3ccc(OC)c(OC)c3CN1CC2 [COR, corydaline] | not detected IC50 values within the set concentration range | decreased significantly | – | – | – | – | – | – | – | – | – | – | – | – | – | – | – | – | – | –
